From article PMC12468313, “Use of Amplified Lewy Body Dementia Fibrils and Autoradiography to Characterize Binding of Radioligand Tg-1-90B to Alpha-Synuclein Fibrils in Postmortem Brain Tissue” (Cells, 2025)

Experiments:
[1] = target: T1, amplified LBD fibrils (PDB 8FPT) alpha-synuclein (Homo sapiens, UniProt P37840); assay: [3H]Tg-1-90B saturation binding assay with amplified LBD fibrils; details: 50 nM fibrils
T1 construct: made in house
Experimental: (§1) IVTris fibrils were assembled in vitro by spontaneous nucleation in 20 mM Tris-HCl, pH 8.0, 100 mM NaCl buffer in a total volume of 1500 µL at 2 mg/mL monomer concentration. The incubation was carried out at 37 °C with continuous shaking at 1000 rpm in a Thermomixer (Eppendorf, Framingham, MA, USA) for 72 h. Amplified LBD fibrils were prepared as described in Dhavale et al. and case LBD1 amplified fibrils were used in this study. PD, disease-control and AD insoluble fraction (IF) tissue homogenate was prepared by sequential homogenization of dissected tissue gray matter in a series of detergents followed by centrifugation to obtain insoluble fraction. […]
(§2) A fixed concentration of binding substrates IVTris fibrils (250 nM), amplified LBD fibrils (50 nM), Aβ fibrils (150 nM), tau fibrils (150 nM), PD, AD or disease control homogenate (10 µg/mL) were incubated for 2 h at 37 °C with increasing concentrations of [^3H]Tg-1-90B in a reaction volume of 150 µL in a 96-well plate. […] Filters containing the bound ligand were mixed with 150 µL of Optiphase Supermix scintillation cocktail (PerkinElmer, Waltham, MA, USA) and counted following overnight incubation. […] The dissociation constant (Kd) and the maximal number of binding sites (Bmax) values were determined by fitting the data to the equation Y = Bmax × X/(X + Kd) by non-linear regression using Graphpad Prism software (version 7.0).

[2] = target: T2, IVTris fibrils (recombinant Asyn PFF) (Homo sapiens, UniProt P37840); assay: [3H]Tg-1-90B saturation binding assay with IVTris fibrils; details: 250 nM fibrils
T2 construct: made in house
Experimental: as §1, §2

Kd ([1]; 2 h 37 °C): 17.5 nM
average Bmax, amplified LBD fibrils ([1]; per nmol Asyn): 20.6 ± 2.5 pmol/nmol
Kd ([2]; 2 h 37 °C, one site saturable specific binding): 40.1 ± 1.9 nM
average Bmax, IVTris fibrils ([2]; per nmol Asyn): 22.3 ± 0.1 pmol/nmol
SMILES: COc1ccc(/C=C/c2cc(-c3nccs3)on2)cc1 [Tg-1-90B]
